Measured values: US20110136858A1, “Preferred Combination Therapy” (priority 2009, published 2011)

Legend:
TGF-beta1 = experiment: Functional assay for TGF-beta Production Stimulator activity: suppression of smooth muscle cell proliferation reversible by neutralising anti-TGF-beta1 antibody; assay type: cell-based, rat; settings: for EC50: rat aortic smooth muscle cells in culture, 72 hrs, suppression of proliferation reversible by neutralising antibodies to TGF-beta1, from dose-response curves of FIG. 2, read-out: ED50 for the TGF-beta Production Stimulator activity
From the text: In order compare Droloxifene with other triphenylethylenes, we have exploited a functional assay for TGF-beta1 activity. Alternative approaches are less suitable for various reasons: it is not possible to directly measure TGF-beta protein production by cultured cells in response to triphenylethylenes because the TGF-beta that is produced remains associated with the cells or the extracellular matrix and is therefore not available for assay (for example, by ELISA) in the conditioned medium from the cultured cells. […] The specificity of such an assay is achieved by comparing the rate of proliferation of the smooth muscle cells in the presence or absence of a validated, highly specific neutralising antibody against TGF-beta (or TGF-beta1, as required).
The cells were prepared by enzyme dispersion of isolated rat aortae exactly as described previously (Grainger et al (1993) Biochem. J. 294(1):109-12 and the references therein). The cells were cultured (37° C.; 5% CO2) in DMEM+10% foetal calf serum (FCS), and subcultured every 4 days at 1:2 dilution, using 0.02% trypsin/EDTA (Gibco). Experiments were performed between the sixth and twentieth subculture.
For the experiments, the cells were subcultured into 12-well cluster plates, and allowed to grow for 24 hrs. […] The cells were then incubated for 72 hrs. All treatment conditions were established in triplicate. One triplicate of cells was counted (see below) at 0 h. All other wells were counted at 72 hrs.
The number of cells in each well was determined as follows: the well was washed three times with serum-free DMEM, aspirated and then incubated with 100 μl of trypsin/EDTA solution (Gibco) for 2 minutes at 37° C. Complete release of the cell monolayer was confirmed microscopically. The cell density in portion of this suspension was determined by counting using an Improved Neubauer hameocytometer, ensuring the suspension was uniform by gentle pipetting, prior to sampling. The cell density was converted to the absolute number of cells present in the well by multiplying the number of cells per μl by the total volume of suspension (100 μl). For each condition, the mean number of cells at the end of the experiment was calculated by meaning the number of cells in each well of triplicate.
The extent of proliferation of the cell culture under each condition was determined by subtracting the mean number of cells at time Oh from the mean number of cells under that condition at time 72 h. The amount of TGF-beta1 activity under each condition was determined by subtracting the inhibition of growth achieved in the presence of neutralising anti-TGF-beta1 antibody (AB-101-NA; R&D Systems) from the inhibition of growth achieved in the absence of antibody.

[1] = chronic Tamoxifen users; translated from the relative risk; cited from earlier work
[2] = Effect of co-administration of triphenylethylenes on clopidogrel metabolism in vivo (CLP*-acetamide by LC-MS); set-up: species or system Sprague-Dawley rats; settings: rats, 0.1 to 10 mg/kg analog with 10 mg/kg clopidogrel
Protocol: Adult male Sprague-Dawley rats are dosed with various triphenylethylenes at different doses from 0.1 mg/kg to 10 mg/kg (spanning the likely doses such compounds would be used in man), or with vehicle only, and simultaneously dosed with 10 mg/kg clopidogrel, both by oral gavage. Blood samples are drawn through an in-dwelling jugular catheter at 0.5, 1, 2, 4, 8 and 24 hrs post-dose, and serum is prepared by conventional methods well known in the art.
The level of CLP*, the active metabolite of clopidogrel is then determined in each blood sample by LC-MS by collecting the blood samples in tubes containing the thiol alkylating agent iodeoacetamide. Iodoacetamide reacts with CLP* to generate a stable product which can be detected by LC-MS using standard methodology well known in the art. An authentic sample of the acetamide adduct of CLP* is used to quantify the level of CLP*-acetamide in the sample. […] The concentration of CLP*-acetamide adduct can therefore be assumed to be proportional to the concentration of CLP*. The pharmacokinetics of CLP*-acetamide are then compared under the different conditions, using standard pharmacokinetics models implemented with WinNonLin.

Compound	EC50 (TGF-beta1)	reduction in risk of death from myocardial infarction [1]	activity as Production Stimulator for TGF-beta1 (in words) (TGF-beta1; rat aortic smooth muscle cells)	effect on clopidogrel metabolism (in words) [2]
CN(C)CCOc1ccc(/C(=C(/CCCl)c2ccccc2)c2ccccc2)cc1 [Toremifene]	10 µM			
CC/C(=C(\c1ccc(I)cc1)c1ccc(OCCN2CCCC2)cc1)c1ccccc1 [Idoxifene]	5 µM			
CC/C(=C(\c1ccccc1)c1ccc(OCCN(C)C)cc1)c1ccccc1 [Tamoxifen]		33%		
O=C(c1ccc(OCCN2CCCCC2)cc1)c1c(-c2ccc(O)cc2)sc2cc(O)ccc12 [Raloxifene]	> 100 µM		does not have measurable activity	
CC/C(=C(/c1ccc(OCCN(C)C)cc1)c1cccc(O)c1)c1ccccc1 [Droloxifene, (E)-1-(4′-(2-dimethylaminoethoxy)phenyl)-1-(3-hydroxyphenyl)-2-phenylbut-1-ene]	3 µM			no effect
